Measurements from patent US20060121449A1, “Method for selection of compounds which inhibit clonal cell growth and use thereof” (priority 2002, published 2006).
“Also recorded” adds a separate entry of the source.

Key:
[1] = system: polyoma virus transformed BHK21/c13 cells, clone S100T1; experiment: Clonal test: clonal growth of S100T1 cells in soft agar (Exp 2, 4, 6, 15, 16); assay type: cell-based, hamster
Ehrlich ascites tumour = conditions: Exp 18
Method: Tumour cells harvested from ascitic mouse were mainly solitary.
The experiment describes transplantation of the malignant mouse Ehrlich ascites tumour to two adult male mice (NMRI/Bom). Each of them received 100000 cells intraperitonally. One mouse was treated two times a week with 4-OH-OPB intraperitonally.
Cells were injected 90 minutes after the addition of 4-OH-OPB to the suspension. The control received the same cell suspension without 4-OH-OPB.
At the same time, dilutions of 4-OH-OPB were injected intraperitonally to the transplanted mice in order to find the smallest active dose.
The cells from ascites in the untreated control mouse was frozen on serum with 10% DMSO. The cells were thawed in water of 37° C., diluted in serum, and pelleted by low speed centrifugation after the addition of 2 ml FBS, to remove DMSO.
Each animal received such cells suspended in portions of 1 ml in RPMI (pH˜6.9).
The frozen and thawed Ehrlich ascites cells are diluted in a volume of 1 ml RPMI (pH˜6.9) for each animal. No calf serum was added to the medium to avoid immunisation of the mice.
Cell number: 90000 tumour cells in 0.7 ml RPMI were injected intraperitonally to each animal.
The total cell number in the ampoule was 7.5 million cells. The cells were thawed, and 2 ml FBS was added before low speed centrifugation. […] Than separate vessels were prepared for each animal. The cell tube for animal number 3 received Colchicine as indicated in the table on day 0 one hour before the cells were injected.
After mixing the same volume was transferred from this tube to the last tube.
The content of the last two tubes was injected intraperitonally to each of the mice number 1 and 2 respectively.

[2] = system: polyoma virus transformed BHK21/c13 cells, line S100T1; experiment: Collocation inhibition test: clonal growth in sparsely and densely seeded areas of a cell density gradient of S100T1 cells in soft agar (Exp 13, 17, 19-26); conditions: for Significance: Exp 17 day 14;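 on Clonal growth, H high density area of cell gradient, High: grades rise with clonal growth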;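 on Clonal growth, H high density area of cell gradient, Low: grades rise with clonal growth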;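 on Clonal growth, H high density area of cell gradient, Medium: grades rise with clonal growth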;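 on Clonal growth, L low density area of cell gradient, High: grades rise with clonal growth and minus or plus-minus means none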;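 on Clonal growth, L low density area of cell gradient, Low: grades rise with clonal growth and minus or plus-minus means none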;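 on Clonal growth, L low density area of cell gradient, Medium: grades rise with clonal growth and minus or plus-minus means none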;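 on all read-outs here: soft agar cultures in 24-well plates with a cell density gradient in the top layer, compounds applied from DMSO stocks, clonal growth scored in sparse versus dense areas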
[3] = Exp 13, 4-OH-OPB 1-3 μM, Colchicine 0.01-0.1 μM
[4] = Exp 13, High inhibitor conc. (Colchicine 100 nM), H: high cell density area
[5] = Exp 13, High inhibitor conc. (Colchicine 100 nM), L: low cell density area
[6] = Exp 13, Low inhibitor conc. (4-OH—OPB 1 μM, Colchicine 10 nM), H: high cell density area
[7] = Exp 13, Low inhibitor conc. (4-OH—OPB 1 μM, Colchicine 10 nM), L: low cell density area
[8] = Exp 13, Medium inhibitor conc. (4-OH—OPB 3 μM, Colchicine 33 nM), H: high cell density area
[9] = Exp 13, Medium inhibitor conc. (4-OH—OPB 3 μM, Colchicine 33 nM), L: low cell density area
[10] = preliminary results, Exp 13-18, 21-26, high concentration
[11] = preliminary results, Exp 13-18, 21-26, low concentration
[12] = preliminary results, Exp 13-18, 21-26, medium concentration

## COc1cc2c(c(OC)c1OC)-c1ccc(OC)c(=O)cc1[C@@H](NC(C)=O)CC2 [Colchicine, reference compound]
[1]; Exp 15, 32000 S100T1 cells/well
  Effect on clonal growth at 0.01-0.1 μM: did not inhibit clonal growth
[1]; Exp 16, about 40000 S100T1 cells/well
  Colony inhibiting activity for dosage within a range that might be therapeutic: the same activity possibly existed
[1]; Exp 16 day 14, Colchicine No 1 (lot 60K1932, solved in DMSO 8 days beforehand, stored frozen), 0.1 μM
  Significance: doubtful
[1]; Exp 16 day 14, Colchicine No 1 (lot 60K1932, solved in DMSO 8 days beforehand, stored frozen), 0.1 μM in wells
  Growth: (+
[1]; Exp 16 day 14, Colchicine No 1 (lot 60K1932, solved in DMSO 8 days beforehand, stored frozen), 1 μM
  Significance: doubtful
[1]; Exp 16 day 14, Colchicine No 1 (lot 60K1932, solved in DMSO 8 days beforehand, stored frozen), 1 μM in wells
  Growth: (+
[1]; Exp 16 day 14, Colchicine No 2 (lot 60K1932, solved in DMSO the same day), 0.1 μM in wells
  Growth: (+
[1]; Exp 16 day 14, Colchicine No 2 (lot 60K1932, solved in DMSO the same day), 0.1 μM, ” = as line above
  Significance: ” and doubtful
[1]; Exp 16 day 14, Colchicine No 2 (lot 60K1932, solved in DMSO the same day), 1 μM
  Significance: possible
[1]; Exp 16 day 14, Colchicine No 2 (lot 60K1932, solved in DMSO the same day), 1 μM in wells
  Growth: (+)
[1]; Exp 16 day 14, Colchicine No 3 (lot 28H1229, solved in DMSO the same day), 0.1 μM
  Significance: possible
[1]; Exp 16 day 14, Colchicine No 3 (lot 28H1229, solved in DMSO the same day), 0.1 μM in wells
  Growth: (+)
[1]; Exp 16 day 14, Colchicine No 3 (lot 28H1229, solved in DMSO the same day), 0.22 μM in wells
  Growth: (+)
[1]; Exp 16 day 14, Colchicine No 3 (lot 28H1229, solved in DMSO the same day), 0.22 μM, ” = as line above
  Significance: ” and possible
[1]; Exp 16 day 14, Colchicine No 4 (lot 28H1229, solved in DMSO the same day), 0.46 μM in wells
  Growth: (+)
[1]; Exp 16 day 14, Colchicine No 4 (lot 28H1229, solved in DMSO the same day), 0.46 μM, ” = as line above
  Significance: ” and possible
[1]; Exp 16 day 14, Colchicine No 4 (lot 28H1229, solved in DMSO the same day), 1 μM
  Significance: probable
[1]; Exp 16 day 14, Colchicine No 4 (lot 28H1229, solved in DMSO the same day), 1 μM in wells
  Growth: (+))
[1]; Exp 16 day 21, Colchicine No 1 (lot 60K1932, solved in DMSO 8 days beforehand, stored frozen), 0.1 μM
  Significance: no
[1]; Exp 16 day 21, Colchicine No 1 (lot 60K1932, solved in DMSO 8 days beforehand, stored frozen), 0.1 μM in wells
  Growth: +
[1]; Exp 16 day 21, Colchicine No 1 (lot 60K1932, solved in DMSO 8 days beforehand, stored frozen), 1 μM
  Significance: doubtful
[1]; Exp 16 day 21, Colchicine No 1 (lot 60K1932, solved in DMSO 8 days beforehand, stored frozen), 1 μM in wells
  Growth: (+
[1]; Exp 16 day 21, Colchicine No 2 (lot 60K1932, solved in DMSO the same day), 0.1 μM
  Significance: doubtful
[1]; Exp 16 day 21, Colchicine No 2 (lot 60K1932, solved in DMSO the same day), 0.1 μM in wells
  Growth: (+
[1]; Exp 16 day 21, Colchicine No 2 (lot 60K1932, solved in DMSO the same day), 1 μM
  Significance: possible
[1]; Exp 16 day 21, Colchicine No 2 (lot 60K1932, solved in DMSO the same day), 1 μM in wells
  Growth: (+)
[1]; Exp 16 day 21, Colchicine No 3 (lot 28H1229, solved in DMSO the same day), 0.1 μM in wells
  Growth: (+
[1]; Exp 16 day 21, Colchicine No 3 (lot 28H1229, solved in DMSO the same day), 0.1 μM, ” = as line above
  Significance: ” and doubtful
[1]; Exp 16 day 21, Colchicine No 3 (lot 28H1229, solved in DMSO the same day), 0.22 μM
  Significance: doubtful
[1]; Exp 16 day 21, Colchicine No 3 (lot 28H1229, solved in DMSO the same day), 0.22 μM in wells
  Growth: (+
[1]; Exp 16 day 21, Colchicine No 4 (lot 28H1229, solved in DMSO the same day), 0.46 μM
  Significance: possible
[1]; Exp 16 day 21, Colchicine No 4 (lot 28H1229, solved in DMSO the same day), 0.46 μM in wells
  Growth: (+)
[1]; Exp 16 day 21, Colchicine No 4 (lot 28H1229, solved in DMSO the same day), 1 μM in wells
  Growth: (+
[1]; Exp 16 day 21, Colchicine No 4 (lot 28H1229, solved in DMSO the same day), 1 μM, ” = as line above
  Significance: ” and doubtful
Ehrlich ascites tumour; at killing, control 2 × 3 mm tumour
  tumour in abdominal wall, findings on section: Lens sized
Ehrlich ascites tumour; at killing, control 4 ml
  ascites with Ehrlich cells, findings on section: 1.5 mL
Ehrlich ascites tumour; day 14 after ip transplantation, mouse 1 killed, mice 2 and 3 marked '?'
  day 14 status: Ascites
Ehrlich ascites tumour; day 16, killed because of signs of ascites
  day 16 status: Ascites
Ehrlich ascites tumour; high dose mixed with the transplanted cells before injection
  Rescue of mice from transplanted Ehrlich tumour: did not provide complete protection against the development of transplantable Ehrlich tumour; also recorded: not rescue the animal either. The conclusion is
Ehrlich ascites tumour; one mouse each, ip: mouse 1 4-OH—OPB from day 1, mouse 2 Etoposide + 4-OH—OPB from day 1, mouse 3 Colchicine from day 0, control mouse 42.4
  weight gain in %: 23.8%
[2]; [3]
  Growth in locations with high cell density: did not inhibit clonal growth
  Growth in locations with low cell density (sparsely seeded cells): full inhibition on clonal growth of sparsely seeded cells; also recorded: inhibited growth in locations with low cell density even when using low doses
[2]; [4]
  Growth, summary of results after 3 days incubation: +++
  Growth, summary of results after 4 days incubation: +++
[2]; [5]
  Growth, summary of results after 3 days incubation: −
  Growth, summary of results after 4 days incubation: −
[2]; [6]
  Growth, summary of results after 3 days incubation: +++
  Growth, summary of results after 4 days incubation: +++
[2]; [7]
  Growth, summary of results after 3 days incubation: −
  Growth, summary of results after 4 days incubation: +−
[2]; [8]
  Growth, summary of results after 3 days incubation: +++
  Growth, summary of results after 4 days incubation: +++
[2]; [9]
  Growth, summary of results after 3 days incubation: −
  Growth, summary of results after 4 days incubation: −
[2]; Exp 17, 144000 S100T1 cells/well
  Effect on growth in high- and low-density areas: did not inhibit the high-density areas significantly; also recorded: no complete clonal inhibition could be observed
[2]; Exp 17, a: close to densely seeded cell areas, High: Colchicine 1, Podophyllotoxin 3, Etoposide 200, 4-OH—OPB 6.7 μM in wells, DMSO 29.2 μl
  Clonal growth, results read on the day 14: (+)
[2]; Exp 17, a: close to densely seeded cell areas, Low: Colchicine 0.1, Podophyllotoxin 0.3, Etoposide 20, 4-OH—OPB 0.67 μM in wells, DMSO 1.16 μl
  Clonal growth, results read on the day 14: ++
[2]; Exp 17, a: close to densely seeded cell areas, Medium: Colchicine 0.3, Podophyllotoxin 0.9, Etoposide 60, 4-OH—OPB 2 μM in wells, DMSO 6.8 μl
  Clonal growth, results read on the day 14: ++
[2]; Exp 17, b: sparsely seeded areas in the same agar culture, High: Colchicine 1, Podophyllotoxin 3, Etoposide 200, 4-OH—OPB 6.7 μM in wells, DMSO 29.2 μl
  Clonal growth, results read on the day 14: (+)
[2]; Exp 17, b: sparsely seeded areas in the same agar culture, Low: Colchicine 0.1, Podophyllotoxin 0.3, Etoposide 20, 4-OH—OPB 0.67 μM in wells, DMSO 1.16 μl
  Clonal growth, results read on the day 14: ++
[2]; Exp 17, b: sparsely seeded areas in the same agar culture, Medium: Colchicine 0.3, Podophyllotoxin 0.9, Etoposide 60, 4-OH—OPB 2 μM in wells, DMSO 6.8 μl
  Clonal growth, results read on the day 14: ++
[2]; Exp 17, compared with 4-OH-OPB
  Clones in sparsely seeded locations of the agar: allow the growth of a few small clones in sparsely seeded locations of the agar; also recorded: to allow the growth of a few small clones in sparsely
[2]; a: close to densely seeded cell areas, High: Colchicine 1, Podophyllotoxin 3, Etoposide 200, 4-OH—OPB 6.7 μM in wells, DMSO 29.2 μl
  Significance: Possible
[2]; a: close to densely seeded cell areas, Low: Colchicine 0.1, Podophyllotoxin 0.3, Etoposide 20, 4-OH—OPB 0.67 μM in wells, DMSO 1.16 μl
  Significance: No
[2]; a: close to densely seeded cell areas, Medium: Colchicine 0.3, Podophyllotoxin 0.9, Etoposide 60, 4-OH—OPB 2 μM in wells, DMSO 6.8 μl
  Significance: No
[2]; b: sparsely seeded areas, High: Colchicine 1, Podophyllotoxin 3, Etoposide 200, 4-OH—OPB 6.7 μM in wells, DMSO 29.2 μl
  Significance: Possible
[2]; b: sparsely seeded areas, Low: Colchicine 0.1, Podophyllotoxin 0.3, Etoposide 20, 4-OH—OPB 0.67 μM in wells, DMSO 1.16 μl
  Significance: No
[2]; b: sparsely seeded areas, Medium: Colchicine 0.3, Podophyllotoxin 0.9, Etoposide 60, 4-OH—OPB 2 μM in wells, DMSO 6.8 μl
  Significance: No
[2]; [10]
  Clonal growth, H high density area of cell gradient, High: +++
  Clonal growth, L low density area of cell gradient, High: −
[2]; [11]
  Clonal growth, H high density area of cell gradient, Low: +++
  Clonal growth, L low density area of cell gradient, Low: −
[2]; [12]
  Clonal growth, H high density area of cell gradient, Medium: +++
  Clonal growth, L low density area of cell gradient, Medium: −
[2]; preliminary results, in words
  Effect on cell cloning in soft agar: Growth in high density areas; also recorded: No growth in low density areas
